Results taken from patent US4148996A, “3,7-Disubstituted cephalosporins” (Societa Farmaceutici Italia S.p.A., priority 1976, dated 1979).
Converted amounts (≈) assume the structure as drawn. Where two headings read alike, the source gives them in different places.

Columns and labels:
[1] = tested on: S.pyogenes; experiment: in vitro MIC by serial dilution, S.pyogenes; assay type: cell-based; settings: Streptococcus pyogenes, read-out: MIC (minimal inhibitory concentration)
Description: (§1) A series of comparative tests was carried out in vitro with the method of serial dilutions in Penassay Seed Broth Difco inoculated with 10^4 bacteria/ml (overnight cultures).
(§2) Table 1 below reports the results of the above assays as MIC (minimal inhibitory concentration, mcg/ml).

[2] = tested on: S.abortivoequina; experiment: in vitro MIC by serial dilution, S.abortivoequina; assay type: cell-based; settings: Salmonella, read-out: MIC (minimal inhibitory concentration)
Description: as §1, §2

[3] = tested on: E.coli B; experiment: in vitro MIC by serial dilution, E.coli B; assay type: cell-based; settings: Escherichia coli, read-out: MIC (minimal inhibitory concentration)
Description: as §1, §2

[4] = tested on: S.aureus; experiment: in vitro MIC by serial dilution, S.aureus; assay type: cell-based, Staphylococcus aureus; settings: for MIC: Staphylococcus aureus, read-out: MIC (minimal inhibitory concentration); for antistaphylococcal activity: in words, compared with cephazolin and cephalothin
Description: as §1, §2

[5] = tested on: S.flexneri; experiment: in vitro MIC by serial dilution, S.flexneri; assay type: cell-based; settings: Shigella flexneri, read-out: MIC (minimal inhibitory concentration)
Description: as §1, §2

[6] = tested on: K.pneumoniae; experiment: in vitro MIC by serial dilution, K.pneumoniae; assay type: cell-based; settings: Klebsiella pneumoniae, read-out: MIC (minimal inhibitory concentration)
Description: as §1, §2

[7] = tested on: Staphylococcus aureus; experiment: in vivo therapeutic activity on mice experimentally infected with Staphylococcus aureus; parameters: species or system male Swiss Cobs albino mice; settings: for ED50: Staphylococcus aureus, sc, 168 h, Table 2, 2 LD50/mouse i.p., subcutaneous treatment 4 h after infection, 7 days, read-out: ED50 (dose effective in curing 50% of the infected mice); for effectiveness on experimental staphylococcal infections: in words, compared with cephazolin and cephalothin
Description: (§3) In vivo tests for therapeutic activity were carried out on mice experimentally infected with Staphylococcus aureus and Salmonella abortivoequina (Infective dose: 2 LD50 /mouse i.p.); groups of 6 male Swiss Cobs albino mice were used. The infected animals were treated by the subcutaneous route 4 h after infection. The mortality rate was recorded every day for 7 days. The activity was assessed as ED50 (Dose effective in curing 50% of the infected mice as mg/Kg--see Reed and Muench, Am. J. Hyg. 27, 493, 1938.)

[8] = tested on: P.mirabilis; experiment: in vitro MIC by serial dilution, P.mirabilis; assay type: cell-based; settings: Proteus mirabilis, read-out: MIC (minimal inhibitory concentration)
Description: as §1, §2

[9] = tested on: S.typhimurium; experiment: in vitro MIC by serial dilution, S.typhimurium; assay type: cell-based; settings: Salmonella enterica, read-out: MIC (minimal inhibitory concentration)
Description: as §1, §2

[10] = tested on: Salmonella abortivoequina; experiment: in vivo therapeutic activity on mice experimentally infected with Salmonella abortivoequina; parameters: species or system male Swiss Cobs albino mice; settings: sc, 168 h
Description: as §3

[11] = S.pyogenes, serial dilutions in Penassay Seed Broth Difco, 10^4 bacteria/ml
[12] = S.abortivoequina, serial dilutions in Penassay Seed Broth Difco, 10^4 bacteria/ml
[13] = E.coli B, serial dilutions in Penassay Seed Broth Difco, 10^4 bacteria/ml
[14] = S.aureus, serial dilutions in Penassay Seed Broth Difco, 10^4 bacteria/ml
[15] = S.flexneri, serial dilutions in Penassay Seed Broth Difco, 10^4 bacteria/ml
[16] = K.pneumoniae, serial dilutions in Penassay Seed Broth Difco, 10^4 bacteria/ml
[17] = P.mirabilis, serial dilutions in Penassay Seed Broth Difco, 10^4 bacteria/ml
[18] = S.typhimurium, serial dilutions in Penassay Seed Broth Difco, 10^4 bacteria/ml
[19] = mice infected with Salmonella abortivo equina, subcutaneous 4 h after infection, read-out: ED50

Row | Compound | MIC [1, 11] | MIC [2, 12] | MIC [3, 13] | MIC [4, 14] | antistaphylococcal activity [4] | MIC [5, 15] | MIC [6, 16] | ED50 [7] | MIC [8, 17] | MIC [9, 18] | other results
1 | O=C(Cc1ccccc1)NC1C(=O)N2C(C(=O)O)=C(CSc3c[n+]([O-])ccn3)CSC12 (centres unmarked) [356/307, 7-phenylacetamido-3-(pyrazin-2-ylthiomethyl-4-oxide)-3-cephem-4-carboxylicacid] | 1.5 µg/mL (≈ 3.27 µM) | 25 µg/mL (≈ 54.5 µM) | 6 µg/mL (≈ 13.1 µM) | 0.012 µg/mL (≈ 0.0262 µM) | excellent antistaphylococcal activity, clearly superior to that of known cephalosporins | 12.5 µg/mL (≈ 27.3 µM) | 1.5 µg/mL (≈ 3.27 µM) | – | – | – | –
2 | O=C(Cc1ccccc1)NC1C(=O)N2C(C(=O)O)=C(CSc3cnccn3)CS[C@H]12 (some centres unmarked) [Compound 308, 7-phenylacetamido-3-pyrazinylthiomethyl-3-cephem-4-carboxylic acid] | 1.5 µg/mL (≈ 3.39 µM) | 100 µg/mL (≈ 226 µM) | 1 to 2 µg/mL (≈ 2.26 to 4.52 µM) | 0.012 µg/mL (≈ 0.0271 µM) | excellent antistaphylococcal activity, clearly superior to that of known cephalosporins | 50 µg/mL (≈ 113 µM) | 0.75 µg/mL (≈ 1.69 µM) | 17.5 mg/kg | 50 µg/mL (≈ 113 µM) | – | effectiveness on experimental staphylococcal infections [7]: more effective than cephazolin and cephalothin
3 | O=C(Cc1ccccc1)NC1C(=O)N2C(C(=O)O)=C(CSc3cncc(Cl)n3)CSC12 (centres unmarked) [Compound 310, 7-phenylacetamido-3-(6-chlorpyrazin-2-ylthiomethyl)-3-cephem-4-carboxylic acid] | 6.2 µg/mL (≈ 13 µM) | 50 µg/mL (≈ 105 µM) | 0.6 µg/mL (≈ 1.26 µM) | 0.06 µg/mL (≈ 0.126 µM) | excellent antistaphylococcal activity, clearly superior to that of known cephalosporins | > 50 µg/mL | 0.1 µg/mL (≈ 0.21 µM) | 35 mg/kg | – | – | –
4 | NC(=O)c1cncc(SCC2=C(C(=O)O)N3C(=O)C(NC(=O)Cc4ccccc4)C3SC2)n1 (centres unmarked) [Compound 311, 7-phenylacetamido-3-(6-carboxamidopyrazin-2-ylthiomethyl)-3-cephem-4-carboxylic acid] | 1.5 µg/mL (≈ 3.09 µM) | > 50 µg/mL | 5 µg/mL (≈ 10.3 µM) | 0.06 µg/mL (≈ 0.124 µM) | – | 12.5 µg/mL (≈ 25.7 µM) | 1.5 to 2.5 µg/mL (≈ 3.09 to 5.15 µM) | 17.5 mg/kg | > 50 µg/mL | – | effectiveness on experimental staphylococcal infections [7]: more effective than cephazolin and cephalothin
5 | CC(=O)OCC1=C(C(=O)O)N2C(=O)C(NC(=O)CSc3cnccn3)C2SC1 (centres unmarked) [Compound 312, 7-pyrazinylthioacetamidocephalosporanic acid] | 3.1 µg/mL (≈ 7.3 µM) | 25 µg/mL (≈ 58.9 µM) | – | – | – | – | 1.5 µg/mL (≈ 3.53 µM) | 40 mg/kg | – | – | MIC [3]: 5 µg/mL (≈ 11.8 µM); MIC [4]: 0.12 µg/mL (≈ 0.283 µM); MIC [5]: 12.5 µg/mL (≈ 29.4 µM)
6 | NC(=O)c1cncc(SCC2=C(C(=O)O)N3C(=O)C(NC(=O)Cc4cccs4)C3SC2)n1 (centres unmarked) [Compound 313, 7-(2-thienyl)-acetamido-3-(6-carboxamidopyrazin-2-ylthiomethyl)-3-cephem-4-carboxylic acid] | 1.25 µg/mL (≈ 2.54 µM) | – | 2.5 µg/mL (≈ 5.09 µM) | 0.012 µg/mL (≈ 0.0244 µM) | excellent antistaphylococcal activity, clearly superior to that of known cephalosporins | 6.25 µg/mL (≈ 12.7 µM) | 1.25 µg/mL (≈ 2.54 µM) | 20 mg/kg | 50 µg/mL (≈ 102 µM) | 12.5 µg/mL (≈ 25.4 µM) | effectiveness on experimental staphylococcal infections [7]: more effective than cephazolin and cephalothin; MIC [2]: 6.25 µg/mL (≈ 12.7 µM)
7 | O=C(Cc1cccs1)NC1C(=O)N2C(C(=O)O)=C(CSc3cnccn3)CSC12 (centres unmarked) [Compound 314, 7-(2-thienyl)-acetamido-3-pyrazinylthiomethyl-3-cephem-4-carboxylic acid] | 1.25 µg/mL (≈ 2.79 µM) | – | 0.6 µg/mL (≈ 1.34 µM) | 0.003 µg/mL (≈ 0.00669 µM) | – | 6.25 µg/mL (≈ 13.9 µM) | 0.6 µg/mL (≈ 1.34 µM) | 20 mg/kg | 25 µg/mL (≈ 55.7 µM) | – | MIC [2]: 6.25 µg/mL (≈ 13.9 µM); MIC ([9]; TYPHIMURIUM): 6.25 µg/mL (≈ 13.9 µM)
8 | O=C(CSc1cnccn1)NC1C(=O)N2C(C(=O)O)=C(CSc3cncc(Cl)n3)CSC12 (centres unmarked) [Compound 315, 7-pyrazinylthioacetamido-3-(6-chloropyrazin-2-ylthiomethyl)-3-cephem-4-carboxylic acid] | 1.25 µg/mL (≈ 2.45 µM) | > 50 µg/mL | 2.5 µg/mL (≈ 4.89 µM) | 0.006 µg/mL (≈ 0.0117 µM) | excellent antistaphylococcal activity, clearly superior to that of known cephalosporins | 50 µg/mL (≈ 97.8 µM) | 1.25 µg/mL (≈ 2.45 µM) | 40 mg/kg | > 50 µg/mL | > 50 µg/mL | –
9 | O=C(CSc1cnccn1)NC1C(=O)N2C(C(=O)O)=C(CSc3c[n+]([O-])ccn3)CSC12 (centres unmarked) [Compound 316, 7-pyrazinylthioacetamido-3-(pyrazin-2-ylthiomethyl-4-oxide)-3-cephem-4-carboxylic acid] | 2.5 µg/mL (≈ 5.08 µM) | – | 5 µg/mL (≈ 10.2 µM) | 0.025 µg/mL (≈ 0.0508 µM) | excellent antistaphylococcal activity, clearly superior to that of known cephalosporins | 12.5 µg/mL (≈ 25.4 µM) | 2.5 µg/mL (≈ 5.08 µM) | 40 mg/kg | > 50 µg/mL | 50 µg/mL (≈ 102 µM) | MIC [2]: 12.5 µg/mL (≈ 25.4 µM)
10 | COc1nccnc1SCC1=C(C(=O)O)N2C(=O)C(NC(=O)Cc3cccs3)C2SC1 (centres unmarked) [Compound 317, 7-(2-thienyl)-acetamido-3-(3-methoxy-pyrazin-2-ylthiomethyl)-3-cephem-4-carboxylic acid] | – | > 50 µg/mL | 1.5 µg/mL (≈ 3.13 µM) | 0.005 µg/mL (≈ 0.0104 µM) | – | 50 µg/mL (≈ 104 µM) | 1.5 µg/mL (≈ 3.13 µM) | – | 50 µg/mL (≈ 104 µM) | > 50 µg/mL | –
11 | O=C(Cn1cnnn1)NC1C(=O)N2C(C(=O)O)=C(CSc3cnccn3)CSC12 (centres unmarked) [Compound 318, 7-[1-(1H)-tetrazolylacetamido]-3-pyrazinylthiomethyl-3-cephem-4-carboxylic acid] | – | 3.1 µg/mL (≈ 7.14 µM) | 6.25 µg/mL (≈ 14.4 µM) | 0.097 µg/mL (≈ 0.223 µM) | – | 3.1 µg/mL (≈ 7.14 µM) | 3.1 µg/mL (≈ 7.14 µM) | – | 12.5 µg/mL (≈ 28.8 µM) | 12.5 µg/mL (≈ 28.8 µM) | –
12 | COc1cncc(SCC2=C(C(=O)O)N3C(=O)C(NC(=O)Cc4cccs4)C3SC2)n1 (centres unmarked) [Compound 321, 7-(2-Thienyl)-acetamido-3-(6-methoxypyrazin-2-ylthiomethyl)-3-cephem-4-carboxylic acid] | 0.12 µg/mL (≈ 0.251 µM) | 20 µg/mL (≈ 41.8 µM) | 1.25 µg/mL (≈ 2.61 µM) | 0.037 µg/mL (≈ 0.0773 µM) | – | 10 µg/mL (≈ 20.9 µM) | 0.25 µg/mL (≈ 0.522 µM) | 15 mg/kg | 10 µg/mL (≈ 20.9 µM) | 20 µg/mL (≈ 41.8 µM) | ED50 [10, 19]: 50 mg/kg
13 | CC(=O)OCC1=C(C(=O)O)N2C(=O)[C@@H](NC(=O)Cc3cccs3)[C@H]2SC1 [cephalothin, reference compound] | – | – | 1.25 µg/mL (≈ 3.15 µM) | 0.1 µg/mL (≈ 0.252 µM) | – | 1.5 µg/mL (≈ 3.78 µM) | – | 30 mg/kg | – | – | MIC [1]: 1.25 µg/mL (≈ 3.15 µM); ED50 ([10]; Salmonella): 50 mg/kg; MIC [8]: 6.2 µg/mL (≈ 15.6 µM); MIC [2]: 1.5 µg/mL (≈ 3.78 µM); MIC ([9]; TYPHIMURIUM): 3 µg/mL (≈ 7.57 µM); MIC [6]: 0.3 µg/mL (≈ 0.757 µM)
14 | Cc1nnc(SCC2=C(C(=O)O)N3C(=O)[C@@H](NC(=O)Cn4cnnn4)[C@H]3SC2)s1 [cephazolin, reference compound] | 1.25 µg/mL (≈ 2.75 µM) | 1.25 µg/mL (≈ 2.75 µM) | 1.25 µg/mL (≈ 2.75 µM) | 0.1 µg/mL (≈ 0.22 µM) | – | 1.5 µg/mL (≈ 3.3 µM) | 0.6 µg/mL (≈ 1.32 µM) | 30 mg/kg | 3.1 µg/mL (≈ 6.82 µM) | 1.5 µg/mL (≈ 3.3 µM) | ED50 [10, 19]: 25 mg/kg
